Source: PMC10253522 (2023)
One block for each molecule: values may come before it.

Test system: aptamer beacon probe (ABP) (DNA, aptamer) ATTCTCTCACCTGGGGGAGTATTGCGGAGGAAGGTAT
Experiment: FAM-Dabcyl fluorescence quenching and fluorescence melting
Conditions: 100 mM NaCl, 5 mM MgCl2, 20 mM Tris-HCl pH 7.4, 23 and 40 °C

- binding (625 µM UTP, no complex in melting, residual quenching): weak
Structure (SMILES): O=c1ccn([C@@H]2O[C@H](COP(=O)(O)OP(=O)(O)OP(=O)(O)O)[C@@H](O)[C@H]2O)c(=O)[nH]1

- binding (133 nM probe, up to 625 µM ATP): yes
Structure (SMILES): Nc1ncnc2c1ncn2[C@@H]1O[C@H](COP(=O)(O)OP(=O)(O)OP(=O)(O)O)[C@@H](O)[C@H]1O

- binding (625 µM CTP, no complex in melting, residual quenching): weak
Structure (SMILES): Nc1ccn([C@@H]2O[C@H](COP(=O)(O)OP(=O)(O)OP(=O)(O)O)[C@@H](O)[C@H]2O)c(=O)n1

- binding (625 µM GTP, no complex in melting, residual quenching): weak
Structure (SMILES): Nc1nc2c(ncn2[C@@H]2O[C@H](COP(=O)(O)OP(=O)(O)OP(=O)(O)O)[C@@H](O)[C@H]2O)c(=O)[nH]1
